Compound `CNc1cc(C2=NOC(c3cc(Cl)cc(Cl)c3)(C(F)(F)F)C2)ccc1C(=O)NCC(F)(F)F` (stereo not shown) gave a melting point of 156 to 158 °C.

Usually melting point stands for the temperature of the solid-liquid transition.

For the origin of these results see US8022089B2, “Isoxazoline-substituted benzamide compound and pesticide” (Nissan Chemical Industries, Ltd., priority 2004, dated 2011).
